We go through 4 compounds from patent US12343319B2, “Compositions and methods for treatment of diseases and disorders” (Atai Therapeutics Inc., priority 2023, dated 2025).

What is called IC50 is the midpoint of a concentration-inhibition curve. Low values mean higher potency, high ones lower potency. A word on the Ki: it is a measure of affinity in units of concentration, obtained from inhibition or displacement. The low end stands for tighter binding, the high end for weaker binding.

Molecules are shown by their SMILES.

Data set [1] relates to Male Sprague-Dawley rats. Kind of data set: Rat forced swim test, immobility frequency. It counts as in vivo. As to conditions: 10 mg/kg, i.p., once 24 hours prior to the swim test. On the procedure:
Male Sprague-Dawley rats were placed individually in clear acrylic swim chambers (40 cm height×20.3 cm diameter) filled to 16 cm for a 15-minute pre-swim session on day 1 and filled to 30 cm for a 5-minute swim test session 24 hours later. Rats (n=10 per treatment group) were administered compound 2-1 (3, 10, 30 mg/kg, i.p., 1 mL/kg, based on weight of the free base) or vehicle (40% (w/v) 2-HPBCD in water, i.p.) at 23.5, 16 and 0.5 hours prior to the swim test. The rapid-acting antidepressant, ketamine (10 mg/kg, i.p.), was included in the study as a positive control condition and injected once 24 hours prior to the swim test.

The subject of data set [2] is primary cortical rat neurons. Kind of data set: Synaptogenesis assay in primary cortical rat neurons. It counts as cell-based. On the procedure:
Pregnant rats for this study were purchased from a commercial breeder. Primary cortical neurons from E17/E18 rat pups were isolated and seeded in 96-well plates. Cells were treated with compound 2-2, FGF (Reference item) or vehicle. After incubation with the respective treatment, cortical neurons were stained for synapsin and tubulin using immunofluorescence.
Stained cells were imaged with the Cytation 5 Multimode reader. From each well, 9 images were taken at 10× magnification. Digital images from cortical neurons were analyzed for the following parameter using a software-supported automatic quantification method: Number of synapsin positive objects. Analysis was performed using Gen5 software. The experiment was run in n=10 technical replicates per condition. Vehicle control and FGF were included on each plate totaling n=20 technical replicates.
Primary cortical neurons were prepared from timed pregnant Spargue Dawley rats at E17/E18. Animals were sacrificed (see section 3.3.1) and embryos were dissected in Calcium and Magnesium free Hanks Balanced Salt Solution (CMF-HBSS) containing 15 mM HEPES and 10 mM NaHCO3, pH 7.2. Embryos were decapitated, skin and skull gently removed and hemispheres were separated. After removing meninges and brain stem, the cortices were isolated, chopped with a sterile razor blade in Chop solution (Hibernate-E without Calcium containing 2% B-27) and digested in 2 mg/mL papain (Worthington) dissolved in Hibernate-E without Calcium for 30 minutes (±5 min) at 30° C. The cortices of the embryos from the two rats were pooled and processed together.
Cortices were triturated for 10-15 times with a fire-polished silanized Pasteur pipette in Hibernate-E without Calcium containing 2% B-27, 0.01% DNaseI, 1 mg/mL BSA, and 1 mg/mL Ovomucoid Inhibitor. Undispersed pieces were allowed to settle by gravity for 3 min and the supernatant was centrifuged for 3 min at 228 g. […]
Cells were counted in a hemacytometer and seeded in nutrition medium on poly-D-lysine pre-coated 96-well plates at a density of 1.5×10^4 cells/well. […]

In data set [3] the target is T1, 5-HT2A receptor (Mus musculus, UniProt P35363). Kind of data set: 5-HT2A receptor binding in mouse frontal cortical tissue. The note with it: for Ki: Mean (Mouse), mouse frontal cortical tissue.
Data set [4] concerns the target T1, 5-HT2A receptor. Also noted: endogenous in cells; host or cells: adult male C57BL/6J mice, in vivo. The note with it: i.p., same assay, Klein et al., 2021; cited from earlier work.
Data set [5] concerns Male Sprague-Dawley rats. Kind of data set: 5-HT2A/2C/1A-mediated behaviors, locomotor activity and body temperature in rats. It counts as in vivo, rat. As to conditions: 1 mg/kg SC. On the procedure:
Forty (40) male Sprague-Dawley rats were used as test subjects in this study. Animals were dosed with vehicle (IP), one of 3 doses of compound 2-2 (3 mg/kg, 10 mg/kg, 30 mg/kg IP) or psilocybin (1 mg/kg SC) and, following the appropriate pre-treatment time, were placed in locomotor activity boxes and continuously monitored for a 1 hr period with data collected into 10-minute time bins. Animals were visually assed for overt behavioral signs, including biomarkers for 5-HT2A receptor target engagement (i.e. wet dog shakes, back muscle contractions and stereotypic behaviors), 5-HT2C receptor activation (yawning, penile grooming), and 5-HT1A behaviors (forepaw treading, hindlimb abduction). Additional behavioral and somatic signs characteristic of 5-HT syndrome (i.e. tremor, salivation, flat body posture) also were measured. Core body temperature change was determined at 0 hr (pre-dose), 1 hr, and 2 hr. Simultaneously, the spontaneous locomotor activity of the rats was measured using automated Med Associates activity test chambers. Activity data collected included total distance travelled, rearing counts, and ambulatory episodes. LMA was measured for a total of 2 hours (i.e. the first hour to include visual assessments of behavioral signs, and the second hour the animals will not be assessed for behavioral signs) with data collected into 10 minute time bins. The tracking arena measured 17″ W×17″ L×12″ H, sensor bars were secured 1″ above the floor to track distance travelled, and a second set of sensor bars were placed ˜5″ above the floor to measure vertical movement and rearing activity. The parameters set on the tracking software were as follows: resolution −50 ms, box size −4 beams, resting delay −500 ms, and ambulatory trigger −3.
Table 14 outlines receptor activity and related behavioral and/or physiological measures.

Data set [6] addresses T2, 5-HT2A receptors in the mouse frontal cortex (Mus musculus, UniProt P35363).
T2 construct: Left frontal cortices from each animal were homogenized individually; from tissue
Kind of data set: Ex vivo 5-HT2A receptor occupancy ([3H]cimbi-36) in mouse frontal cortex. The note with it: mouse, 3 mg/kg IP, 15 minutes post dosing.

Another data set relates to Male WKY rats. Kind of data set: Sleep-wake behavior, EEG power, body temperature and locomotor activity in WKY rats. It counts as in vivo, rat. The note with it: over 6 hours post dose, WKY rats, IP. Here is the method: Male WKY rats (n=7, 289-388 g at the start of dosing) were housed in groups of 2-3 animals per cage with standard housing conditions. For implantation of the EEG electrodes and radio transmitter, the animals were anesthetized with isoflurane (2-5% in oxygen at 11/min) throughout the procedure. The scalp, neck and right flank were cleared of hair using clippers and cleaned using diluted Hibitane (chlorhexidine, 50% (v/v) in water). A non-steroidal anti-inflammatory agent was administered (carprofen 5 mg/kg, s.c.) and the animals placed on a homeothermic blanket (37° C.) with the head fixed in a stereotaxic frame. Incisions were made in the scalp and neck, as well as in the right flank. Blunt dissection of the abdominal muscle was then made to gain access to the peritoneal cavity. A radio transmitter (HD-S02, Data Sciences International) was implanted in the peritoneal cavity and secured to the muscle wall with non-absorbable sutures. The wires of the transmitter were passed using a 19G needle through the muscle wall and then sub-dermally to the scalp to act as Electroencephalogram (EEG)/Electromyograph (EMG) electrodes. The scalp was cleared of connective tissue and two craniotomies were made with a trepanning drill (fronto-parietal coordinates; Bregma+2 mm anterior, midline+1.0 mm lateral and Lambda 0 mm, +1.5 mm lateral). The positive EEG electrode was attached to the anterior craniotomy and the negative EEG electrode to the posterior craniotomy. Both electrodes were secured in place using a suitable adhesive agent (cyanoacrylate gel, RS components). A second set of electrodes were sutured into the nuchal muscle to act as EMG electrodes. All incisions were closed using absorbable suture.
All animals were allowed to recover in a warm environment and given 5 ml of saline subcutaneously (s.c.). Animals were kept singly in the cage until the next day, then pair housed for the duration of post-surgical recovery (minimum 7 days). During the recovery period, the rats received 5 days of standard post-operative care with no further experimental procedures until the pre-operative body weight was regained. The animals were maintained on a 12/12 hour light dark cycle (08:00 am lights on) after the surgery. Home cages and post-operative cages contained bedding and nesting material, along with environmental enrichment such as wooden chew-sticks and plastic tunnels.
On test days, ˜60 minutes after lights-on, animals were placed in recording boxes similar to their home-cages, except that environmental enrichment was restricted to a large bundle of nesting and bedding material, to avoid interference with the telemeter signals. Then, data acquisition was initiated for confirmation of signal quality. EEG and EMG data were acquired using intraperitoneal HD-S02 transmitters (DSI, New Brighton, MN) and Spike2 software (CED). EEG and EMG signals were digitized 500 samples/second, amplified 1000× and bandpass filtered at 0.5-100 Hertz (Hz). After 60 minutes of habituation, each animal was briefly removed from its box and dosed via the intraperitoneal (i.p.) route in a volume of 2 mL/kg. Test conditions included saline vehicle, psilocybin (10 mg/kg) positive control, compound 2-1 at 3, 10 and 30 mg/kg and compound 2-2 at 10, 17 and 30 mg/kg. Doses were based on the molecular weight of the free bases. compound 2-1 and compound 2-2 dosing solutions were prepared in 40% (w/v) hydroxypropyl-beta-cyclodextrin. After dosing, animals were immediately put back into the recording boxes, the experimenter left the room, and recordings continued uninterrupted for 23 hours. At the end of the recording session, the transmitters were turned off and the animals were returned to their home cages. All animals received all treatment conditions in a pseudo randomized cross-over fashion with a minimum washout period of 7 days between doses.
All data was aligned to zero (the time of dosing), with epochs defined as non-overlapping 10-second time segments. […]

T1 sequence (P35363 whole entry): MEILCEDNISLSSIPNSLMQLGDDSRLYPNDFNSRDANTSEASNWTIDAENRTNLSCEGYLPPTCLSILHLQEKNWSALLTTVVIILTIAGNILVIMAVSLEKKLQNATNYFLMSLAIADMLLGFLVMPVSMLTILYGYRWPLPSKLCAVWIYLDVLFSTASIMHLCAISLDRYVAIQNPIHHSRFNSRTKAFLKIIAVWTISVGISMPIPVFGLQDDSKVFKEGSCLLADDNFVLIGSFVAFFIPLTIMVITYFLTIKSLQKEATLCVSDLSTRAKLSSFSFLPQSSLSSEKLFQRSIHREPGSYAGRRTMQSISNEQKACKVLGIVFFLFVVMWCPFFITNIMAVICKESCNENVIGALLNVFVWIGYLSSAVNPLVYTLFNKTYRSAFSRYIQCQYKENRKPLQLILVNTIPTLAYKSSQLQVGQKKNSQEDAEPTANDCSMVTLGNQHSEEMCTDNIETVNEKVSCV
T2 sequence (P35363 whole entry): as above

Regarding `CNC1(c2ccccc2Cl)CCCCC1=O` (stereo not drawn) [Ketamine, ketamine, reference compound], the “immobility compared to vehicle” value in the data set on Male Sprague-Dawley rats [1] is “significantly decreased”.

Turning to `CN(C)CCc1c[nH]c2ccccc12` [N,N-DMT], the “synaptogenesis compared to VC (synapsin positive objects normalized to tubulin III area)” value in data set [2] (1 μM (highest concentration), DIV1-DIV10) is on record as “significant increase”; in data set [2] (lower concentrations (below 1 μM)), “no significance”.

Turning to `CN(C)CCc1c[nH]c2cccc(O)c12` [Psilocin, psilocin], the IC50 at 5-HT2A receptor [3] stood at 99 nM. Besides, the Ki is 45.1 nM on 5-HT2A receptor [3] (Ki) and 45.7 nM at 5-HT2A receptor [3] (pKi). For the same compound, the “HTR ED50” value at 5-HT2A receptor [4] was 0.17 mg/kg.

Regarding `CN(C)CCc1c[nH]c2cccc(OP(=O)(O)O)c12` [Psilocybin, psilocybin, reference compound], in the data set on Male Sprague-Dawley rats [5], the “distance travelled during the first 20 minutes of the 2 hour test” value was “decreased” and the “total locomotor activity measures” value was “did not affect”. The receptor occupancy at 3 mg/kg in data set [6] (read-out: % Receptor Occupancy (RO)) was found to be 19%. Besides, the remaining activity at 3 mg/kg in data set [6] (read-out: % of Control Binding) is 81%. The body temperature entry in the data set with Male WKY rats is “↓(for 6 h)”.
